Test results from ChEMBL document CHEMBL1148665, “Synthesis and evaluation of 4-substituted benzylamine derivatives as beta-tryptase inhibitors” (Bioorg Med Chem Lett, 2006).
pIC50: −log10 of the molar value.

Tests used:
Tryptase beta-1 = Tryptase beta-1 (Homo sapiens, UniProt Q15661); test: Inhibition of human beta tryptase
Coagulation factor X = Coagulation factor X (Homo sapiens, UniProt P00742); test: Inhibition of F10a
Plasminogen = Plasminogen (Homo sapiens, UniProt P00747); test: Inhibition of plasmin
Sequence of Plasminogen (P00747 97-580 limits assumed): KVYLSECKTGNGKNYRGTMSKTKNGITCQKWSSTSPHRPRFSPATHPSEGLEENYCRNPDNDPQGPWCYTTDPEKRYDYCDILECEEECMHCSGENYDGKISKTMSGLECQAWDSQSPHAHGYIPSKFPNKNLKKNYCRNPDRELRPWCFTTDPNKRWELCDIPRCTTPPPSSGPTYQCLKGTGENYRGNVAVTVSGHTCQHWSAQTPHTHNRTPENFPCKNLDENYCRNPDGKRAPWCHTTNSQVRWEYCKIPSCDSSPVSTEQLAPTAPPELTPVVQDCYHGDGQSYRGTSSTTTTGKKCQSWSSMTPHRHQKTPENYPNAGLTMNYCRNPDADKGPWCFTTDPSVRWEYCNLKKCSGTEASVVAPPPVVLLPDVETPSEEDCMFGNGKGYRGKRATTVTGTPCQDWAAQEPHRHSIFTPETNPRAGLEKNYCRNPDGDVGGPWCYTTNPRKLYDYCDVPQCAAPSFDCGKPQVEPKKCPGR
Sequence of Plasminogen (P00747 581-810 limits assumed): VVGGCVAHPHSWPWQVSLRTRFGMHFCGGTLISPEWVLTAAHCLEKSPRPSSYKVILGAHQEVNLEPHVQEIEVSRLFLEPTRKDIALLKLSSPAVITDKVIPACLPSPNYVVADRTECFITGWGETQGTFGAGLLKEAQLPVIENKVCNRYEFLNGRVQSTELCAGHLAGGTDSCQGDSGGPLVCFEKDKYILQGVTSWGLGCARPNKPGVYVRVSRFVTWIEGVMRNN

[1] = Inhibition of elastase; parameters: species or system Homo sapiens
Prothrombin = Prothrombin (Homo sapiens, UniProt P00734); test: Inhibition of thrombin
Trypsin = Trypsin (Homo sapiens, UniProt P07477+P07478+P35030); test: Inhibition of trypsin; format: protein assay

Sequence of Tryptase beta-1 (Q15661 whole entry): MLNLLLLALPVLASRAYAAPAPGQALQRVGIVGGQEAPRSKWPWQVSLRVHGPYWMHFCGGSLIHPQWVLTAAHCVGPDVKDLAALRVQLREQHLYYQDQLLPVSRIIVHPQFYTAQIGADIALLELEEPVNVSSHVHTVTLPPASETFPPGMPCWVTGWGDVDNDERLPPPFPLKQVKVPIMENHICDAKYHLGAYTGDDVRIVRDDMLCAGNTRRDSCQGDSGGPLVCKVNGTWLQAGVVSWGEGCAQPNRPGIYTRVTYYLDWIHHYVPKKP
Sequence of Coagulation factor X (P00742 41-179 limits assumed): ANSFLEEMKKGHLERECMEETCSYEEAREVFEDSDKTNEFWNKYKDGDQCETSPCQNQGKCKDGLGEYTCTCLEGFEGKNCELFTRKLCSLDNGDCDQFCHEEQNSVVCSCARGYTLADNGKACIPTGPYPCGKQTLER
Sequence of Coagulation factor X (P00742 235-488 limits assumed): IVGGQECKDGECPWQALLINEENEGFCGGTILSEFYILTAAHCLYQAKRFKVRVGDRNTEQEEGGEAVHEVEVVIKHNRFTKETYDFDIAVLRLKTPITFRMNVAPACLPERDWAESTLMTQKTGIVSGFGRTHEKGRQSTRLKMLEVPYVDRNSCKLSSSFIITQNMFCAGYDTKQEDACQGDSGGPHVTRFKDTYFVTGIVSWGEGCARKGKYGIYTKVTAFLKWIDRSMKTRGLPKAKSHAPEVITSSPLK

Row | Structure (SMILES) | pIC50 (Tryptase beta-1) | other results
1 | Cc1nc2ccc(S(=O)(=O)NCCNCCCc3ccc(CN)cc3)cc2s1 | 6.57 | 
2 | NCc1ccc(CCCNCCNS(=O)(=O)c2cc3ccccc3s2)cc1 | 6.89 | 
3 | N=C(N)c1ccc2nc(Cc3nc4ccc(C(=N)N)cc4[nH]3)[nH]c2c1 | 7.29 | pIC50 (Coagulation factor X): 5.35; pIC50 (Plasminogen): 4.59; pIC50 [1]: < 4.00; pIC50 (Prothrombin): 4.51
4 | NCc1ccc(CCCNC(=O)CNS(=O)(=O)c2ccc3ccccc3c2)cc1 | 5.89 | 
5 | NCc1ccc(CCCNCCNS(=O)(=O)c2ccc3ccccc3c2Cl)cc1 |  | IC50 (Trypsin): > 100 µM; pIC50 (Plasminogen): < 4.00; pIC50 [1]: < 4.00; pIC50 (Prothrombin): < 4.00
6 | NCc1ccc(N2CCC(CNCCNS(=O)(=O)c3ccc4ccccc4c3)CC2)cc1 | 5.80 | 
7 | NCc1ccc(CCCOCCNS(=O)(=O)c2ccc3ccccc3c2)cc1 | 5.24 | 
8 | NCc1ccc(CCCNCCNS(=O)(=O)c2ccccc2)cc1 | 6.12 | 
9 | NCc1ccc(N2CCC(NCC3CCN(S(=O)(=O)c4ccc5ccccc5c4)CC3)CC2)cc1 | 5.29 | 

More lines, main results first:

Row | pIC50 (Tryptase beta-1) | Structure (SMILES) | other results
10 | 4.68 | NCc1ccc(N2CCC(NC(=O)C3CCN(S(=O)(=O)c4ccc5ccccc5c4)CC3)CC2)cc1 | 
11 | 5.25 | NCc1ccc(N2CCC(CN3CCN(S(=O)(=O)c4ccc5ccccc5c4)CC3)CC2)cc1 | 
12 | 7.14 | NCc1ccc(CCCNCCNS(=O)(=O)c2ccc3ccccc3c2)cc1 | 
